Columns and labels:
[1] = Stability in simulated gastric fluid (SGF), pH 1.2; format: in vitro ADME; conditions: pH 1.2, 37° C.
Method: GI: Stability in simulated gastric fluid (USP, 37° C.)
(§1) HPLC analysis was carried out on an Agilent 1200 Infinity Series Quatpump, equipped with a photodiode array detector and a computer integrating apparatus. An Inertsil ODS-3 column, C18, 5 μm, 4.6×50 mm (GL Science Inc. Japan) protected with a guard column: Alltima C18, 5 μm, 4.6×7.5 mm (Grace Discovery Sciences, IL, USA) was used as the stationary phase. An isocratic method with a mobile phase consisting of water/acetonitrile (70:30) containing 0.05% formic acid in each was used. A flow rate of 0.9 mL/min was used and detection was carried out at a UV wavelength of 250 nm.
To formulate 1 mg/mL of II-38 in SGF, 3.1 mg of II-38 was dissolved in 0.155 mL of DMSO (i.e. 5%) and added slowly and gradually to a total volume of 2.945 mL of preheated SGF (Table 3) in a cell diffusion chamber preheated to 37° C. The solution was mixed for 30 sec. every half an hour using magnetic stirrer. Samples of 20 μL (20 μg/mL of II-38) were collected at 0, 1, 2, 4, 6 and 8 h. Each sample was mixed with acetonitrile QS to 1 mL, vortex-mixed for 30 sec and centrifuged at 10,000 rpm at room temp. A volume of 10 μL of the supernatant was injected into the HPLC spectrometer.

[2] = Stability in human plasma; format: in vitro ADME; conditions: 80% human plasma, 37° C.
Method: Plasma: Stability in rat and human plasma (37° C.)
as §1
Formulation of II-38 in human plasma: to prepare 1 mg/mL of II-38, 2.3 mg of II-38 was formulated in DMSO (5%) and added slowly and gradually to a total volume of 2.185 mL of premixed human plasma (80%+PBS 15%, see Table 6) in a Franz cell diffusion chamber preheated to 37° C. The solution was mixed for a min every half an hour using magnetic stirrer. Samples of 20 μL (20 μg/mL of II-38) were collected at 0, 0.5, 1, 2, 4, 6 and 8 h. Each sample was mixed with acetonitrile QS to 1 mL, vortex-mixed for 30 sec and centrifuged at 10,000 rpm at room temp. A volume of 10 μL of the supernatant was injected into the HPLC spectrometer.

cerebral infarct = conditions: treatment 3-hours post-ischemia; cited from earlier work
[3] = in rats, general statement; cited from earlier work
28-day toxicity studies = format: in vivo; conditions: low doses
Description: (§2) Overt reactive oxygen species (ROSs) can be produced due to noise and certain ototoxic drugs that can damage the hair cells of the ear, resulting in either temporary or permanent hearing loss. Exposure to blast waves and continuous noise not only damaged the inner ear, but caused cell death in the hippocampus, suppressed neurogenesis and impaired memory function. Aging as well can manifest in mitochondrial dysfunction leading to hearing loss. It is emerging that attempts to treat hearing loss by targeting downstream issues is not very effective. In one embodiment, the compositions and methods of the invention relate to targeting oxidative stress upstream at the mitochondria that may be causative for many disorders. There have been a variety of attempts to lower cellular stress, such as administering anti-oxidants, however these drugs have limited tissue penetration into the brain and lower ROSs after they have been formed. […] While not being bound to theory, it is postulated that DNP modulates the mitochondrial membrane potential having a significant impact at preventing ROS formation in isolated mitochondria and in the treated wildtype mice. DNP treatment 3-hours post-ischemia reduced cerebral infarct volume 40% by protecting the penumbra or “threaten tissue” and could provide similar benefits after a blast to protect inner hair cells from eminent cell death. […]

wildtype mice = test: Lifespan of chronically treated wildtype mice; format: in vivo; conditions: wildtype mice chronically treated with an extraordinarily low dose
Description: as §2

Caco-2 = test: Caco-2; format: in vitro ADME
Description: as §2

O=C(Oc1ccc([N+](=O)[O-])cc1[N+](=O)[O-])N1CCOCC1 [II-38, 2,4-Dinitrophenyl morpholine-4-carboxylate]
stability in SGF [1]: stable | hydrolysis in human plasma [2]: cleaved in the plasma to produce 2,4-DNP at a slow rate

O=[N+]([O-])c1ccc(O)c([N+](=O)[O-])c1 [2,4-DNP, 2,4-dinitrophenol]
reduction of cerebral infarct volume (cerebral infarct): 40% | half-life [3]: ~6 h | Safety Index (28-day toxicity studies): ≥ 10 × | toxicity (28-day toxicity studies): not toxic | lifespan (wildtype mice): living longer than untreated mice | inhibition, Caco-2 (Caco-2): no inhibition
